Assay results reported in patent US7405205B2, “Antitumor antisense sequences directed against R1 and R2 components of ribonucleotide reductase” (Lorus Therapeutics Inc., priority 1996, dated 2008).
Strand notation (5' to 3'): a small letter for the sugar, then the base; units joined by * are phosphorothioate-linked, units joined directly phosphodiester-linked; [ ] holds rarer units or linkages, { } end groups; capitals alone tell only the bases. d = 2'-deoxy (DNA)

Test system: T24 bladder cell carcinoma
Assay: Relative colony forming efficiency after antisense treatment (Table 13)
Type: cell-based, human
Details: 0.2 μM antisense oligodeoxyribonucleotide phosphorothioate; T24 cells; averages of 2-8 determinations

Sequence	Reduced relative colony forming efficiency, expressed as % inhibition, T24 [%]
ATGGAAAAAAAAAATCAGCC (DNA, all phosphorothioate, methylation of C not given here) [AS-II-1390-20]	61.13
CACACAACCTACTTACACCA (antisense; DNA, all phosphorothioate, methylation of C not given here) [AS-II-2372-20]	61.13
CGGGTCCGTGATGGGCGCGA (dC*dG*dG*dG*dT*dC*dC*dG*dT*dG*dA*dT*dG*dG*dG*dC*dG*dC*dG*dA; antisense) [AS-II-217-20]	65.02
CGTTGAGGAAAATACAGTGA (antisense; DNA, all phosphorothioate, methylation of C not given here) [AS-II-2182-20]	67.76
GACATCACTCCCATCCTCTG (DNA, all phosphorothioate, methylation of C not given here) [AS-II-1302-20]	70.56
GAGAAATAAAATGAAACGGC (antisense; DNA, all phosphorothioate, methylation of C not given here) [AS-II-2164-20]	61.84

Test system: HCT116 colon cell carcinoma
Assay: as above
Type: cell-based, human
Details: 0.2 μM antisense oligodeoxyribonucleotide phosphorothioate; HCT116 cells; averages of 2-8 determinations

Sequence	Reduced relative colony forming efficiency, expressed as % inhibition, HCT116 [%]
ATGGAAAAAAAAAATCAGCC (DNA, all phosphorothioate, methylation of C not given here) [AS-II-1390-20]	62.18
CACACAACCTACTTACACCA (antisense; DNA, all phosphorothioate, methylation of C not given here) [AS-II-2372-20]	64.7
CGGGTCCGTGATGGGCGCGA (dC*dG*dG*dG*dT*dC*dC*dG*dT*dG*dA*dT*dG*dG*dG*dC*dG*dC*dG*dA; antisense) [AS-II-217-20]	61.85
CGTTGAGGAAAATACAGTGA (antisense; DNA, all phosphorothioate, methylation of C not given here) [AS-II-2182-20]	77.66
GACATCACTCCCATCCTCTG (DNA, all phosphorothioate, methylation of C not given here) [AS-II-1302-20]	71.98
GAGAAATAAAATGAAACGGC (antisense; DNA, all phosphorothioate, methylation of C not given here) [AS-II-2164-20]	50.08

Test system: A549 lung cell carcinoma
Assay: as above
Type: cell-based, human
Details: 0.2 μM antisense oligodeoxyribonucleotide phosphorothioate; A549 cells; averages of 2-8 determinations

Sequence	Reduced relative colony forming efficiency, expressed as % inhibition, A549 [%]
ATGGAAAAAAAAAATCAGCC (DNA, all phosphorothioate, methylation of C not given here) [AS-II-1390-20]	88.31
CACACAACCTACTTACACCA (antisense; DNA, all phosphorothioate, methylation of C not given here) [AS-II-2372-20]	96.41
CGTTGAGGAAAATACAGTGA (antisense; DNA, all phosphorothioate, methylation of C not given here) [AS-II-2182-20]	90.97
GACATCACTCCCATCCTCTG (DNA, all phosphorothioate, methylation of C not given here) [AS-II-1302-20]	93.17
GAGAAATAAAATGAAACGGC (antisense; DNA, all phosphorothioate, methylation of C not given here) [AS-II-2164-20]	91.15

Test system: MDA-MB-231 breast cell adenocarcinoma
Assay: Relative colony forming efficiency after antisense treatment (Table 13, FIG. 11, FIG. 12)
Type: cell-based, human
Details: 0.2 μM antisense oligodeoxyribonucleotide phosphorothioate; MDA-MB-231 cells; averages of 2-8 determinations
Description: Colony forming efficiency was determined as previously reported [Huang and Wright, 1994]. The cells were cultured for 24 hours at 37° C. in growth medium with 10% fetal bovine serum. The cells were washed in 5 ml phosphate buffered saline, pH 7.2, once prior to lipofectin+/−oligonucleotide treatment.
The oligonucleotides being tested were added to cell cultures in the presence of 2.5 μg of DOTMA/DOPE (Lipofectin; Life Technologies, Inc.) for four hours. The oligonucleotide was tested at 0.2 μM unless otherwise indicated. Controls were the cultures treated with lipofectin but without the oligonucleotide. After 4 hours the medium containing the oligonucleotide was removed and washed with 5 ml of growth medium. The cells were then cultured in growth medium containing 10% fetal bovine serum for seven to ten days. Surviving cells were visualized by methylene blue staining, and colonies were scored. In some experiments cell aliquotes were removed from the culture and viability was determined using the trypan blue exclusion test [Phillips, 1973]. Results were analyzed as percent of surviving cells compared to control cells.
To test the antisense effects of many of these sequences as phosphorthioate deoxyribonucleotides, they were examined in relative colony forming experiments performed with a series of human tumor cell lines. Many of these antisense constructs, as predicted, are potent inhibitors of human tumor cell proliferation. For results obtained with cancer cells derived from the bladder, breast, lung, colon, pancreas, prostate, liver and cervix, see Table 13. In addition, in vivo studies with AS-II-626-20 were undertaken in C3H/HeN mice as reported in Table 14 and show a significant reduction in metastasis in the antisense treated mice.
Colony forming ability of MDA-MB-231 human breast cancer cells treated with 28 different antisense oligonucleotides was estimated as previously described (Choy et al., 1988). Aliquots of cell suspension were seeded into 60 mm Petri dishes and incubated at 37° C. overnight in α-MEM medium supplemented with 10% fetal bovine serum. Cells were washed in 5 ml of phosphate buffered saline, pH 7.2, prior to 0.2 μM antisense/lipofectin treatments for 4 hours. The media containing the antisense oligonucleotides were removed and cells were washed once and cultured in growth medium for 7 to 10 days. Colonies were stained with methylene blue and scored as described (Choy et al., 1988; Huang and Wright 1994). Percent inhibition was calculated by comparison with the number of colonies present in cultures grown in the absence of antisense oligonucleotides. All experiments were performed in quadruplicate. FIG. 11 is a graph of the percentage inhibition of colony formation by treatment with the various antisense oligonucleotides.
Colony forming ability of various human tumor cell lines was estimated by determining relative colony forming efficiencies (Choy et al., 1988). Cells from various cell lines were washed in 5 ml of phosphate buffered saline, pH 7.2. The cells were treated with 0.2 μM AS-I-618-20 antisense oligonucleotide/lipofectin for 4 hours. The medium containing the antisense oligonucleotide was then removed and the cells were gently washed with 5 ml of growth medium. The cells were cultured in growth medium containing 10% fetal bovine serum for seven to ten days. […] The following human tumor cell lines were evaluated: HepG2 (liver), SK-OV-3 (ovary), U87 (brain), A2058 (melanoma), H460 (lung), MDA-MB-231 (breast) and AsPC-1 (pancreas).

Sequence	Reduced relative colony forming efficiency, expressed as % inhibition, MDA-MB-231 [%]
ATGGAAAAAAAAAATCAGCC (DNA, all phosphorothioate, methylation of C not given here) [AS-II-1390-20]	66.89
CACACAACCTACTTACACCA (antisense; DNA, all phosphorothioate, methylation of C not given here) [AS-II-2372-20]	90.09
CGGGTCCGTGATGGGCGCGA (dC*dG*dG*dG*dT*dC*dC*dG*dT*dG*dA*dT*dG*dG*dG*dC*dG*dC*dG*dA; antisense) [AS-II-217-20]	52.7
CGTTGAGGAAAATACAGTGA (antisense; DNA, all phosphorothioate, methylation of C not given here) [AS-II-2182-20]	84.95
GACATCACTCCCATCCTCTG (DNA, all phosphorothioate, methylation of C not given here) [AS-II-1302-20]	92.2
GAGAAATAAAATGAAACGGC (antisense; DNA, all phosphorothioate, methylation of C not given here) [AS-II-2164-20]	69.03

Test system: MIA PaCa-2 pancreatic cell carcinoma
Assay: Relative colony forming efficiency after antisense treatment (Table 13)
Type: cell-based, human
Details: 0.2 μM antisense oligodeoxyribonucleotide phosphorothioate; MIA PaCa-2 cells; averages of 2-8 determinations

Sequence	Reduced relative colony forming efficiency, expressed as % inhibition, MIA PaCa-2 [%]
ATGGAAAAAAAAAATCAGCC (DNA, all phosphorothioate, methylation of C not given here) [AS-II-1390-20]	82.77
CACACAACCTACTTACACCA (antisense; DNA, all phosphorothioate, methylation of C not given here) [AS-II-2372-20]	94.36
CGGGTCCGTGATGGGCGCGA (dC*dG*dG*dG*dT*dC*dC*dG*dT*dG*dA*dT*dG*dG*dG*dC*dG*dC*dG*dA; antisense) [AS-II-217-20]	87.38
CGTTGAGGAAAATACAGTGA (antisense; DNA, all phosphorothioate, methylation of C not given here) [AS-II-2182-20]	56.43
GACATCACTCCCATCCTCTG (DNA, all phosphorothioate, methylation of C not given here) [AS-II-1302-20]	23.86
GAGAAATAAAATGAAACGGC (antisense; DNA, all phosphorothioate, methylation of C not given here) [AS-II-2164-20]	89.36

Test system: PC-3 prostrate cell adenocarcinoma
Assay: as above
Type: cell-based, human
Details: 0.2 μM antisense oligodeoxyribonucleotide phosphorothioate; PC-3 cells; averages of 2-8 determinations

Sequence	Reduced relative colony forming efficiency, expressed as % inhibition, PC-3 [%]
ATGGAAAAAAAAAATCAGCC (DNA, all phosphorothioate, methylation of C not given here) [AS-II-1390-20]	76.76
CACACAACCTACTTACACCA (antisense; DNA, all phosphorothioate, methylation of C not given here) [AS-II-2372-20]	86.06
CGGGTCCGTGATGGGCGCGA (dC*dG*dG*dG*dT*dC*dC*dG*dT*dG*dA*dT*dG*dG*dG*dC*dG*dC*dG*dA; antisense) [AS-II-217-20]	87.41
CGTTGAGGAAAATACAGTGA (antisense; DNA, all phosphorothioate, methylation of C not given here) [AS-II-2182-20]	85.91
GACATCACTCCCATCCTCTG (DNA, all phosphorothioate, methylation of C not given here) [AS-II-1302-20]	79.01
GAGAAATAAAATGAAACGGC (antisense; DNA, all phosphorothioate, methylation of C not given here) [AS-II-2164-20]	83.36

Test system: HepG2 hepatocellular carcinoma
Assay: Relative colony forming efficiency after antisense treatment (Table 13, FIG. 12)
Type: cell-based, human
Details: 0.2 μM antisense oligodeoxyribonucleotide phosphorothioate; HepG2 cells; averages of 2-8 determinations

Sequence	Reduced relative colony forming efficiency, expressed as % inhibition, HepG2 [%]
ATGGAAAAAAAAAATCAGCC (DNA, all phosphorothioate, methylation of C not given here) [AS-II-1390-20]	90.21
CGGGTCCGTGATGGGCGCGA (dC*dG*dG*dG*dT*dC*dC*dG*dT*dG*dA*dT*dG*dG*dG*dC*dG*dC*dG*dA; antisense) [AS-II-217-20]	99.55
CGTTGAGGAAAATACAGTGA (antisense; DNA, all phosphorothioate, methylation of C not given here) [AS-II-2182-20]	95.48
GAGAAATAAAATGAAACGGC (antisense; DNA, all phosphorothioate, methylation of C not given here) [AS-II-2164-20]	93.07
